Data on seven compounds can be found in ChEMBL document CHEMBL2375345, “New antiprotozoal agents: their synthesis and biological evaluations” (Bioorg Med Chem Lett, 2013).

Broadly, the IC50 is the concentration at which inhibition is half-maximal. For orientation: logP means a log measure of how a compound divides between an organic and an aqueous phase. A lower logP goes with a more hydrophilic compound. What is called CC50 is the concentration that lowers cell viability or growth by half.

The test system of one data set is Leishmania infantum. As to the kind of experiment: Antiprotozoal activity against amastigote form of Leishmania infantum MHOM/MA(BE)/67 infected in mouse peritoneal macrophages assessed as reduction of intracellular parasite burden after 5 days by Giemsa staining method. To be noted: MHOM/MA(BE)/67, 120 h. It is filed as functional, organism-based.
Data set [1] relates to Trypanosoma cruzi. Description: Antiprotozoal activity against epimastigote form of Trypanosoma cruzi Tulahuen 2 assessed as parasite growth inhibition measured at day 5. It is filed as functional, organism-based. To be noted: Tulahuen 2, 120 h.
A short description of data set [2]: Lipophilicity, log P of the compound. It is filed as physicochemical. Conditions: octanol/water.
Data set [3] is described as follows: Cytotoxicity against mouse peritoneal macrophages. It is filed as cell-based. To be noted: peritoneal macrophage cell.
Data set [4] is described as follows: Selectivity index, ratio of CC50 for human MRC5 cells to IC50 for amastigote form of Leishmania infantum MHOM/MA(BE)/67. It is filed as functional.
A short description of data set [5]: Cytotoxicity against human MRC5 cells assessed as cell viability after 7 days by Alamar blue assay. It is filed as cell-based. (In general: Alamar Blue is a resazurin reagent that responds to reducing activity.)
The test system of data set [6] is Trypanosoma brucei brucei. Description: Antiprotozoal activity against trypomastigote form of Trypanosoma brucei brucei 427 assessed as parasite growth inhibition. It is filed as functional, organism-based.
The test system of data set [7] is Trypanosoma brucei rhodesiense. As to the kind of experiment: Antiprotozoal activity against trypomastigote form of Trypanosoma brucei rhodesiense STIB900 assessed as parasite growth inhibition after 72 hrs by Alamar blue assay. It is filed as functional, organism-based. To be noted: STIB900, 72 h.
A short description of data set [8]: Selectivity index, ratio of CC50 for human MRC5 cells to IC50 for epimastigote form of Trypanosoma cruzi Tulahuen 2. It is filed as functional.
Data set [9] is described as follows: Selectivity index, ratio of CC50 for human MRC5 cells to IC50 for trypomastigote form of Trypanosoma brucei brucei 427. It is filed as functional.
Data set [10] can be described thus: Selectivity index, ratio of CC50 for human MRC5 cells to IC50 for trypomastigote form of Trypanosoma brucei rhodesiense STIB900. It is filed as functional.
For another data set, the system named is Leishmania donovani. As to the kind of experiment: Antiprotozoal activity against […] form of Leishmania donovani infected in primary macrophages assessed as reduction in intracellular parasite level after 90 mins by Giemsa staining method. It is filed as functional, organism-based. To be noted: 1.5 h.
The test system of data set [11] is Trypanosoma cruzi. As to the kind of experiment: Antiprotozoal activity against trypomastigote form of Trypanosoma cruzi Colombian infected in BALB/c mouse assessed as decrease in parasitemia at 100 mg/kg, po administered for 1 week followed by weekly administration measured after 8 months. Conditions: 168 h.
Data set [12] concerns Trypanosoma cruzi. Description: Trypanocidal activity against Trypanosoma cruzi.

Structures are written as SMILES.

`COc1nc2ccc(Br)cc2c2c1C(C)(OCC(O)CN)c1ccccc1-2` (stereo not given): the IC50 with Leishmania infantum came out at 400 nM; with Trypanosoma cruzi [1], 470 nM; in data set [6], 250 nM; in data set [7], 250 nM. The compound further returned a logP in data set [2] of 3.46. Moreover, the Activity result in data set [3] is “Non-toxic”. Besides, the “Ratio CC50/IC50” value in [4] was determined as 3.4; in data set [8], 2.89; in [9], 5.44; in [10], 5.44. Further, the CC50 at 168 h in [5] was 1360 nM.

For the compound `O=C1c2ccccc2-c2c1c(Nc1ccncc1)nc1ccc(Br)cc21`, the IC50 in the data set with Leishmania infantum is 5080 nM; in the data set with Trypanosoma cruzi [1] it was 250 nM; in data set [6], 560 nM; in data set [7], 250 nM. For the same compound, the logP in data set [2] was 4.64. Also, in data set [3], the Activity entry is listed as “Non-toxic”. Moreover, the “Ratio CC50/IC50” value in data set [4] was 0.15; in [8] it was 3; in data set [9] it was 1.34; in data set [10], 3. For the same compound, the CC50 at 168 h in [5] was found to be 750 nM.

`CC(O)c1cc(F)ccc1Oc1nc2ccc(NC(=O)Nc3cccc([N+](=O)[O-])c3)cc2cc1Cc1ccccc1` (stereo not given): the IC50 with Leishmania infantum amounted to 1700 nM; in the data set on Trypanosoma cruzi [1] it was 1000 nM; in [6], 510 nM; in [7] it was 250 nM. The compound further showed a logP in data set [2] of 6.84. Besides, the Activity entry in [3] is “Non-toxic”. For the same compound, the Ratio CC50/IC50 is 1.29 in [4], 2.15 in data set [8], 4.31 in [9] and 8.8 in [10]. The CC50 at 168 h in [5] came out at 2200 nM.

Take `COc1ccccc1NC(=O)Nc1ccc2nc(Oc3ccc(F)cc3C(C)O)c(Cc3ccccc3)cc2c1` (stereo not given): the IC50 in the data set on Leishmania infantum amounted to 3170 nM; with Trypanosoma cruzi [1], 2890 nM; in [6], 650 nM; in [7] it was 250 nM. Also, the lipophilicity (logP) in data set [2] was 6.72. In [3], the Activity entry is on record as “Non-toxic”. In [5], the CC50 at 168 h is 6210 nM. Moreover, the “Ratio CC50/IC50” value in data set [8] amounted to 2.16; in data set [9] it was 9.55.

Regarding `C[C@@H]1[C@H](O)[C@@H](C)/C=C/C=C/C=C/C=C/C=C/C=C/C=C/[C@H](O[C@@H]2O[C@H](C)[C@@H](O)[C@H](N)[C@@H]2O)C[C@@H]2O[C@](O)(C[C@@H](O)C[C@@H](O)[C@H](O)CC[C@@H](O)C[C@@H](O)CC(=O)O[C@H]1C)C[C@H](O)[C@H]2C(=O)O` [AMPHOTERICIN B], in the data set with Leishmania donovani, the IC50 came out at 250 nM.

Turning to `O=C(Cn1ccnc1[N+](=O)[O-])NCc1ccccc1` [BENZNIDAZOLE], the IC50 in the data set on Trypanosoma cruzi [11] came to 3660 nM.

`CC1CS(=O)(=O)CCN1/N=C/c1ccc([N+](=O)[O-])o1` (stereo not given) [NIFURTIMOX] returned an IC50 in the data set on Trypanosoma cruzi [12] of 1800 nM.
